Measured values taken from the supplement of paper PMC12463676, “Small-molecule dissolution of stress granules by redox modulation benefits ALS models” (Nature Chemical Biology, 2025).

Tests used:
lipoamide = compound: NC(=O)CCCCC1CCSS1 [lipoamide]; test: thermal stability z-score vs DMSO; higher = more thermally stabilized by treatment; settings: HeLa, lipoamide concentration 100 µM
Procedure: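 Cellular thermal proteome profiling in HeLa cells. Cells were treated with 100 µM lipoamide for 1 h, with or without 1 mM arsenate for a further 1 h, then heated to ten temperatures (37-66.3 °C), and soluble protein was quantified by TMT mass spectrometry relative to 0.1% DMSO controls. The thermal stability score (sum of log2 fold changes minus the abundance score) was transformed to a z-score; mean of n = 3 experiments.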

potassium arsenate = compound: O=[As]([O-])(O)O.[K+] [potassium arsenate]; test: as above; settings: HeLa; arsenate concentration 1 mM
Procedure: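 Cellular thermal proteome profiling in HeLa cells treated with 1 mM arsenate for 1 h (DMSO pretreatment), heated to ten temperatures (37-66.3 °C). Soluble protein was quantified by TMT mass spectrometry relative to DMSO controls; the thermal stability score was transformed to a z-score; mean of n = 3 experiments.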

[1] = arsenate co-treatment: 1 mM arsenate 1 h
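Note: each temperature applied for 3 min, abundance score taken as mean log2 fold change at the two lowest temperatures, z-score obtained by mean subtraction and division by SD.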

Sequence of UniProt P49711 (P49711 whole entry): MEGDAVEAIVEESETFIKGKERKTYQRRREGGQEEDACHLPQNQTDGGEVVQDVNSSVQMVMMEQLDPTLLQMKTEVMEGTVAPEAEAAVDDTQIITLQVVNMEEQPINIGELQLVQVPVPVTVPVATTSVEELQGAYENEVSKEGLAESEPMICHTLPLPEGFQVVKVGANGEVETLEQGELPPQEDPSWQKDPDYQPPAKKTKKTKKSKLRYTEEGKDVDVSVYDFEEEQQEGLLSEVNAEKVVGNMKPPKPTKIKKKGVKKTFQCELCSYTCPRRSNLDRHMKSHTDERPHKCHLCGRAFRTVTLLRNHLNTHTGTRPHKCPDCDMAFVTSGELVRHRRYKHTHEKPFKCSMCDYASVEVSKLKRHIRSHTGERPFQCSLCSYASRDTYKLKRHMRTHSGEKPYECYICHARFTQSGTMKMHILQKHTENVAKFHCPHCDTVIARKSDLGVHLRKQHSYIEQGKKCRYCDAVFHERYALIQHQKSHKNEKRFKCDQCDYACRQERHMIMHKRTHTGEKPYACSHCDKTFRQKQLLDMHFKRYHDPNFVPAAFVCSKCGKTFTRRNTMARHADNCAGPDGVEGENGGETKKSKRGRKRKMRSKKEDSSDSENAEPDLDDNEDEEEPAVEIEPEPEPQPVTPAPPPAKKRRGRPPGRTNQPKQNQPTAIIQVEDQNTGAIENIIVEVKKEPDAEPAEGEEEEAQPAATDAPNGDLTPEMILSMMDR
Sequence of UniProt Q16890 (Q16890 whole entry): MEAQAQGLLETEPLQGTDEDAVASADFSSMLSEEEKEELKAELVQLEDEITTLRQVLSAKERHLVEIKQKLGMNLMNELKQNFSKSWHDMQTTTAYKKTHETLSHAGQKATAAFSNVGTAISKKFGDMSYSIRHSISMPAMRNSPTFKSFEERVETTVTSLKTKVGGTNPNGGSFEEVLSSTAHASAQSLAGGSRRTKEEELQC
Sequence of UniProt Q9C0J8 (Q9C0J8 whole entry): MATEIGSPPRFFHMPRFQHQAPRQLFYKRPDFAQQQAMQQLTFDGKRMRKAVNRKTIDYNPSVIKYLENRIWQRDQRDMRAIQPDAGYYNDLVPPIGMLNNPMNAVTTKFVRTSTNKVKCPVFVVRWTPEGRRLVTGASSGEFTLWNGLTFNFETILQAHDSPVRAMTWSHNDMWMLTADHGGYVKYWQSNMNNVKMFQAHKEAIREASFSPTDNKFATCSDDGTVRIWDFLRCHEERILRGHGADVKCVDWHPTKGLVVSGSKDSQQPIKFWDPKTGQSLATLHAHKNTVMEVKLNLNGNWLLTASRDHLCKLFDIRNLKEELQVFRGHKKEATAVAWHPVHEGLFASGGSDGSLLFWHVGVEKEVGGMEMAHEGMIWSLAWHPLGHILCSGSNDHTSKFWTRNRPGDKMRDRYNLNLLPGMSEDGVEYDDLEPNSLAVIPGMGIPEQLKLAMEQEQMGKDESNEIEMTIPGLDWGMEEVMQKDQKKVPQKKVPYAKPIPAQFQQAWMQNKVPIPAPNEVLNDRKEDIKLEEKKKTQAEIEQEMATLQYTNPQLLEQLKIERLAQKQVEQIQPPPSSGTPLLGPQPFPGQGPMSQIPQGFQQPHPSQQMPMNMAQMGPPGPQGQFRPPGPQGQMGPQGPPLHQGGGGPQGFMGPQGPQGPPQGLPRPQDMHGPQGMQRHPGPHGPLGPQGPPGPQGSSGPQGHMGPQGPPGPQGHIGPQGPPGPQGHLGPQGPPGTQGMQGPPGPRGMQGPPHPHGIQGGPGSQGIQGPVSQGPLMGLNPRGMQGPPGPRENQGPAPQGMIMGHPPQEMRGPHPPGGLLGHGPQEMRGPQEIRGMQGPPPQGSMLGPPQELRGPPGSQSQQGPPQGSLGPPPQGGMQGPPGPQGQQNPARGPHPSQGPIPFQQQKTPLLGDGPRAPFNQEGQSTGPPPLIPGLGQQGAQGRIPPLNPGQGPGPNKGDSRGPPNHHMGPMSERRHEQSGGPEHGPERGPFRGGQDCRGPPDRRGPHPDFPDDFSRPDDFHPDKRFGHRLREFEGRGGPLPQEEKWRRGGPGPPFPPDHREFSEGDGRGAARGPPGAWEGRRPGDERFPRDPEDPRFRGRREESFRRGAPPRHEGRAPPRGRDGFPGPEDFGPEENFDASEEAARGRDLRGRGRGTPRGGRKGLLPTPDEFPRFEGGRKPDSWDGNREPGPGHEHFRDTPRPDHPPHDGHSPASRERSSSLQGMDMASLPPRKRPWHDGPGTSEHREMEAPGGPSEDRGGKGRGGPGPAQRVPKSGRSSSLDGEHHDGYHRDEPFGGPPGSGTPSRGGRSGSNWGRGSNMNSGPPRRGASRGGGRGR
Sequence of UniProt Q9HCK8 (Q9HCK8 whole entry): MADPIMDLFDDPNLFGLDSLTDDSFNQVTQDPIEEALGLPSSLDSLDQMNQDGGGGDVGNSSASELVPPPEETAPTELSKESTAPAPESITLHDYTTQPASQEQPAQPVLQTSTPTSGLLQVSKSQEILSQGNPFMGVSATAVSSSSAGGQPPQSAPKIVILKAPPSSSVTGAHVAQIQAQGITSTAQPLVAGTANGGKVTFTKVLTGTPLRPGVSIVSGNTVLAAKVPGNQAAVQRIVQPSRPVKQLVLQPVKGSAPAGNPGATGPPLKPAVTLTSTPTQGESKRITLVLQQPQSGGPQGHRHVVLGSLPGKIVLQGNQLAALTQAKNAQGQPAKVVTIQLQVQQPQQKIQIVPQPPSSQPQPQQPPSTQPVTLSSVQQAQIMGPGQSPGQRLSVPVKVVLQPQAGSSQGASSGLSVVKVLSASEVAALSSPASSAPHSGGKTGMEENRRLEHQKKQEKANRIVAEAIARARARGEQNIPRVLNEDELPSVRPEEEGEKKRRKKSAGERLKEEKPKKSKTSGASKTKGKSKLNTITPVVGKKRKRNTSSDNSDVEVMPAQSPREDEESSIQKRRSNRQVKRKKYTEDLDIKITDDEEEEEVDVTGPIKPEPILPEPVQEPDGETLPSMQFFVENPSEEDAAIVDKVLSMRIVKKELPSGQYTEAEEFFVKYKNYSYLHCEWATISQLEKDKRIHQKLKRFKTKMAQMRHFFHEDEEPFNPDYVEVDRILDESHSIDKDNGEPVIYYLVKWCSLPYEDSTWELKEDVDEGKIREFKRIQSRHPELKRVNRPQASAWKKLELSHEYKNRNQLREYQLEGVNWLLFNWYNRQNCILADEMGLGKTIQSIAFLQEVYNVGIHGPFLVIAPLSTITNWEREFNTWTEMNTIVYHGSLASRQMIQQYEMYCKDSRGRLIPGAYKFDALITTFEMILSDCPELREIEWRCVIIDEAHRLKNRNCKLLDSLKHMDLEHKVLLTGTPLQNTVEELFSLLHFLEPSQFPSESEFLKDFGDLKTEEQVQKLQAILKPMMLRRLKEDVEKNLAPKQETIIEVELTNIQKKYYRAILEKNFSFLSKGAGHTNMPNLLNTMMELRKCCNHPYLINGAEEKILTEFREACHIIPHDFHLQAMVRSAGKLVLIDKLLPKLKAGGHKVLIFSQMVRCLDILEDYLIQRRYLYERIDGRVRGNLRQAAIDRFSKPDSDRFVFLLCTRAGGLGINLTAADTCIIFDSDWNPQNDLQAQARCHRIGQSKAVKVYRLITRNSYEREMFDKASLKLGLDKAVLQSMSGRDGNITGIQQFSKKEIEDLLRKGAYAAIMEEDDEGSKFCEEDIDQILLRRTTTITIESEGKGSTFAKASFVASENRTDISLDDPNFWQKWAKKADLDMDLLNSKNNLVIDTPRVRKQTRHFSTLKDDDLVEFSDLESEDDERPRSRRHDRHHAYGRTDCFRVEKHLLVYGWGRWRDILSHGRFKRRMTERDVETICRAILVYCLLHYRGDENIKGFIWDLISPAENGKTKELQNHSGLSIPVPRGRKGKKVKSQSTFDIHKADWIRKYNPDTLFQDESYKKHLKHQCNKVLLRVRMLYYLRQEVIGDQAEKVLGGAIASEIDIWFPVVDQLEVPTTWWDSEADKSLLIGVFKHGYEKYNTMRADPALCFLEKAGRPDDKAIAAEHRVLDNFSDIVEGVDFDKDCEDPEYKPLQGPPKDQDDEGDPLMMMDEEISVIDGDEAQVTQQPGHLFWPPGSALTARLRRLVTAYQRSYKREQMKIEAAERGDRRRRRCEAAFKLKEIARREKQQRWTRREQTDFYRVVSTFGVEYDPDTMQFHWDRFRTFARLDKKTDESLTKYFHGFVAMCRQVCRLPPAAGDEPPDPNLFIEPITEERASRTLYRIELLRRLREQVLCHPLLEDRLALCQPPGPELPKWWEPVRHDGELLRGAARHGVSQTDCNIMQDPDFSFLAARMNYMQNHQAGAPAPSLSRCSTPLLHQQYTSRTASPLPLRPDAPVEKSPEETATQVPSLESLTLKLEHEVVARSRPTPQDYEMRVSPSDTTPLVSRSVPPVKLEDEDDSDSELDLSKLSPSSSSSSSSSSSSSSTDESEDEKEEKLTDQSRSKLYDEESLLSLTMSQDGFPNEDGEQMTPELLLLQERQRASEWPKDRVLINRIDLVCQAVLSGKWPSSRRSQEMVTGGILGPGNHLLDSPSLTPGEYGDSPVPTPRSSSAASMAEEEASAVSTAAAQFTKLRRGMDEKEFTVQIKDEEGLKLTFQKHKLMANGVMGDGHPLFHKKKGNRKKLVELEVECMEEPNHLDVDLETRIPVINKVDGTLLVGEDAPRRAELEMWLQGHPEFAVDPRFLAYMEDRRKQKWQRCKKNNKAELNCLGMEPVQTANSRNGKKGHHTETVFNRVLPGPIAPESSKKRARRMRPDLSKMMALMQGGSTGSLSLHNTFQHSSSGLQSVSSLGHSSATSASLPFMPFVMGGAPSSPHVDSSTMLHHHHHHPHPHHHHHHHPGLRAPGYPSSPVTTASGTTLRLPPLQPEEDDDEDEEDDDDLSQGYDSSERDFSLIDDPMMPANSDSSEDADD
Sequence of UniProt O00142 (O00142 whole entry): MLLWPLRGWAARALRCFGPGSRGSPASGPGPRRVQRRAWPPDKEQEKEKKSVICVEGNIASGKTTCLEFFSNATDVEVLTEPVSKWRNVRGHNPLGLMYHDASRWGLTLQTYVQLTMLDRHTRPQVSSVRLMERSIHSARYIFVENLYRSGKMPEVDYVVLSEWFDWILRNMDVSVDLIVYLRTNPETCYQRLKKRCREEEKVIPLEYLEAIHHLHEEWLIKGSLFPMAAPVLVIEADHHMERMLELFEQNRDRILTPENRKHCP

Target	thermal stability z-score (lipoamide; [1])	thermal stability z-score (lipoamide; arsenate co-treatment: none)	thermal stability z-score (potassium arsenate)
TBCD (UniProt Q9BTW9)	-0.558	-0.301	0.705
DDX42 (UniProt Q86XP3)	0.815	0.837	0.47
PABPC4 (UniProt Q13310)	0.322	0.911	-0.478
WDR33 (UniProt Q9C0J8)	0.0589	-0.0858	-0.105
RPS6KA1 (UniProt Q15418)	-0.0567	-0.413	0.0783
GNA11 (UniProt P29992)	0.729	0.404	-1.21
FARP1 (UniProt Q9Y4F1)	-0.118	-1.38	-2.23
SEC63 (UniProt Q9UGP8)	-1.11	-0.484	-0.767
CTCF (UniProt P49711)	0.761	-0.0166	-1.14
SDR39U1 (UniProt Q9NRG7)	0.717	0.0552	0.471
KMT2D (UniProt O14686)	-0.298	-0.455	-0.661
C9ORF142 (UniProt Q9BUH6)	-0.55	-0.635	-0.706
CHD8 (UniProt Q9HCK8)	-0.13	-0.00227	0.147
GPRIN1 (UniProt Q7Z2K8)	0.529	-0.0428	-0.256
SLC9A3R1 (UniProt O14745)	0.348	0.362	-0.36
PHLPP1 (UniProt O60346)	0.138	-0.144	-0.061
LAMA3 (UniProt Q16787)	0.341	-0.204	0.34
UBAP2L (UniProt Q14157)	0.549	0.413	-0.116

Target	thermal stability z-score (lipoamide; [1])	thermal stability z-score (lipoamide; arsenate co-treatment: none)	thermal stability z-score (potassium arsenate)
WASL (UniProt O00401)	-0.128	0.327	-1.26
RPS16 (UniProt P62249)	1.04	0.549	-0.329
NHSL1 (UniProt Q5SYE7)	0.0509	0.218	0.0815
TK2 (UniProt O00142)	0.341	0.589	-0.137
BTBD1 (UniProt Q9H0C5)	-0.0349	0.00713	0.0567
ANXA4 (UniProt P09525)	1.42	1.61	0.225
XRCC5 (UniProt P13010)	-0.555	0.584	-0.403
TRIM28 (UniProt Q13263)	-0.138	0.0166	-1.49
EXOSC8 (UniProt Q96B26)	0.692	-0.359	-0.573
SRP19 (UniProt P09132)	-0.296	-0.485	0.033
NDUFS2 (UniProt O75306)	-0.481	-0.617	-0.577
TK1 (UniProt P04183)	0.233	0.418	-0.307
TPD52L1 (UniProt Q16890)	0.471	0.545	0.237
APOL2 (UniProt Q9BQE5)	-0.399	0.15	0.589
A0A0B4J2A0|SHPK	-0.157	-0.0688	-0.112
CTNNA1 (UniProt P35221)	0.319	0.2	-0.4
VMP1 (UniProt Q96GC9)	-1.19	-1.69	-0.372
